Laboratory results reported in patent US11884681B2, “3H,4H,5H,6H,7H-pyrimido[4,5-b][1,4]oxazine-4,6-dione derivatives as TRPA1 inhibitors” (Boehringer Ingelheim International GmbH, priority 2021, dated 2024).

Columns and labels:
human TRPA1 ion channel = biological target: T1, human TRPA1 ion channel (Homo sapiens, UniProt O75762); assay: Assay A: TRPA1 assay (FLIPR calcium, AITC agonism); format: cell-based; conditions: compounds of the invention; HEK293 over-expressing human TRPA1, AITC final 10 μM, FLIPRtetra; read-out: hTRPA1 IC50
T1 construct: host or cells: HEK293
T1 sequence (O75762 whole entry): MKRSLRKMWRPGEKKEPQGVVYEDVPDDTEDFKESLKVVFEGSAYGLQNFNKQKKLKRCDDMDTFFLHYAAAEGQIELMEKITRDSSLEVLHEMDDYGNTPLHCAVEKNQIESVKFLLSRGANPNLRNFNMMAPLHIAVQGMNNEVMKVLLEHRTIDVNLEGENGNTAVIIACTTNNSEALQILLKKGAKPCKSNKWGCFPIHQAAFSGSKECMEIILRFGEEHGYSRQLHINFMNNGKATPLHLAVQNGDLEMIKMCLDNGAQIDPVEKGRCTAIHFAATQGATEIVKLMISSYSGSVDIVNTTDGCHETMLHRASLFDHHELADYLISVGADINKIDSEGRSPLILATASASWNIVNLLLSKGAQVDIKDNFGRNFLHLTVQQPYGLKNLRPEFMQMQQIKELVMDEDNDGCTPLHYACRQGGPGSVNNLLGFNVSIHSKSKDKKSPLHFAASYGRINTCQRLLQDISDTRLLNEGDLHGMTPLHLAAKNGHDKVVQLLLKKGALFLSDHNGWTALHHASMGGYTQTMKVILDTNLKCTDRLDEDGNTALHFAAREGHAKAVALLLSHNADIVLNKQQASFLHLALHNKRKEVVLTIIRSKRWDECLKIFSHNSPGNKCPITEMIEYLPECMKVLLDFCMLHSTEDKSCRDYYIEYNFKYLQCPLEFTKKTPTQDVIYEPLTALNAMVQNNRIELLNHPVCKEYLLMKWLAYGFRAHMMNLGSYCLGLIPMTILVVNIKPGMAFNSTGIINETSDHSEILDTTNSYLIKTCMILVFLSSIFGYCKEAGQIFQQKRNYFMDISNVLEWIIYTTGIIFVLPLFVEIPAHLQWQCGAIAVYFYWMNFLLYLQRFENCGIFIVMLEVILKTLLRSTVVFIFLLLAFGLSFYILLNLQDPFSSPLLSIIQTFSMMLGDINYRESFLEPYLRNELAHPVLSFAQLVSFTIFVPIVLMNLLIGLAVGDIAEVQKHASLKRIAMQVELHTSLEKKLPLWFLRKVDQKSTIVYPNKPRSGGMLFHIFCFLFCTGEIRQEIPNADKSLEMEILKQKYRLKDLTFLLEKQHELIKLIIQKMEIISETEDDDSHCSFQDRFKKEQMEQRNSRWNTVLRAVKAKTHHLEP
Experimental: A human HEK293 cell line over-expressing the human TRPA1 ion channel (Perkin Elmer, Product No. AX-004-PCL) is used as a test system for compound efficacy and potency. Compound activity is determined by measuring the effect of compounds on intracellular calcium concentration induced by AITC (Allylisothiocyanat) agonism in a FLIPRtetra system (Molecular Devices).
The cells are obtained as frozen cells in cryo-vials and stored until use at −150° C. Cells are grown in culture medium (MEM/EBSS medium with 10% FCS and 0.4 mg/ML Geneticin). […] For sub-culturing cells are detached from flasks by Versene. At the day before the assay, cells are detached, washed twice with medium (MEM/EBSS medium with 10% FCS) and 20000 cells in 20 μl/well are seeded to Poly D-Lysin biocoated 384-well plates (black, clear bottom, Cat. 356697) from Corning. Plates are incubated for 24 hours at 37° C./5% CO2 before use in the assay.
The test compounds are dissolved in 100% DMSO at a concentration of 10 mM and in a first step diluted in DMSO to a concentration of 5 mM, followed by serial dilution steps in 100% DMSO. Dilution factor and number of dilution steps may vary according to needs. Typically 8 different concentrations by 1:5 dilutions are prepared, further intermediate dilutions (1:20) of the substances are carried out with HBSS/HEPES buffer (1×HEPES, Cat. 14065 from Gibco, 20 mM HEPES, Cat. 83264 from SIGMA, 0.1% BSA Cat. 11926 from Invitrogen, pH 7.4
At the assay day cells are washed 3× with assay puffer, 20 μL buffer remaining in the wells after washing. 10 μL Ca6 kit (Cat. R8191 MolecularDevices) loading buffer in HBSS/HEPES is added to the cells and the plates are incubated with lid for 120 minutes at 37°/5% CO2. […] Finally 10 μL of the agonist AITC 50 μM dissolved in HBSS/HEPES buffer/0.05% DMSO (final concentration 10 μM) is added to the wells followed by an additional read on the FLIPRtetra device for 10 minutes. The area under the signal curve (AUC) after AITC addition is used for IC50/% inhibition calculations
Data Evaluation and Calculation:
Each assay microtiter plate contains wells with vehicle (1% DMSO) controls instead of compound as controls for AITC induced luminescence (100% CTL; high controls) and wells with vehicle controls without AITC as controls for non-specific changes in luminescence (0% CTL; low controls).
The analysis of the data is performed by the calculation of the area under signal curve of the individual wells. Based on this values the % value for the measurement of each substance concentration is calculated (AUC(sample)−AUC(low))*100/(AUC(high)−AUC(low)) using MegaLab software (in house development). The IC50 values are calculated from the % control values using MegaLab software. Calculation: [y=(a−d)/(1+(x/c)^b)+d], a=low value, d=high value; x=conc M; c=IC50 M; b=hill; y=% ctrl

[1] = Assay B: Microsomal clearance; format: in vitro ADME, human; conditions: compounds of the invention; pooled liver microsomes 1 mg/ml, 1 μM compound, 37° C., NADPH
Experimental: Assay B: Microsomal Clearance:
The metabolic degradation of the test compound is assayed at 37° C. with pooled liver microsomes. The final incubation volume of 100 μl per time point contains TRIS buffer pH 7.6 at RT (0.1 M), magnesium chloride (5 mM), microsomal protein (1 mg/ml) and the test compound at a final concentration of 1 μM.
Following a short preincubation period at 37° C., the reactions are initiated by addition of beta-nicotinamide adenine dinucleotide phosphate, reduced form (NADPH, 1 mM) and terminated by transferring an aliquot into solvent after different time points (0, 5, 15, 30, 60 min). Additionally, the NADPH-independent degradation is monitored in incubations without NADPH, terminated at the last time point. The [%] remaining test compound after NADPH independent incubation is reflected by the parameter c(control) (metabolic stability). The quenched incubations are pelleted by centrifugation (10000 g, 5 min).
An aliquot of the supernatant is assayed by LC-MS/MS for the amount of parent compound. The half-life (t1/2 INVITRO) is determined by the slope of the semilogarithmic plot of the concentration-time profile.
The intrinsic clearance (CL_[…]) is calculated by considering the amount of protein in the incubation: CL_[…] [μl/min/mg protein]=(Ln 2/(half-life [min]*protein content [mg/ml]))*1000 CL_[…]_INVIVO [ml/min/kg]=(CL_[…] [μL/min/mg protein]×MPPGL [mg protein/g liver]×liver factor [g/kg bodyweight])/1000 Qh [%]=CL [ml/min/kg]/hepatic blood flow [ml/min/kg])
(§1) Hepatocellularity, human: 120×10e6 cells/g liver
(§2) Liver factor, human 25.7 g/kg bodyweight
(§3) Blood flow, human 21 ml/(min×kg)

[2] = Assay C: Hepatocyte clearance; format: in vitro ADME, human; conditions: compounds of the invention; hepatocyte suspension, 5% species serum, 1 μM compound, up to 6 h
Experimental: Assay C: Hepatocyte Clearance
The metabolic degradation of the test compound is assayed in a hepatocyte suspension. Hepatocytes (cryopreserved) are incubated in Dulbecco's modified eagle medium (supplemented with 3.5 μg glucagon/500 mL, 2.5 mg insulin/500 mL and 3.75 mg/500 mL hydrocortison) containing 5% species serum.
The cells are incubated for six hours (incubator, orbital shaker) and samples (25 μl) are taken at 0, 0.5, 1, 2, 4 and 6 hours. Samples are transferred into acetonitrile and pelleted by centrifugation (5 min). The supernatant is transferred to a new 96-deepwell plate, evaporated under nitrogen and resuspended.
Decline of parent compound is analyzed by HPLC-MS/MS
CLint is calculated as follows CL_[…]=Dose/AUC=(CO/CD)/(AUD+clast/k)×1000/60. C0: initial concentration in the incubation [μM], CD: cell density of vital cells [10e6cells/mL], AUD: area under the data [μM×h], clast: concentration of last data point [μM], k: slope of the regression line for parent decline [h−1].
The calculated in vitro hepatic intrinsic clearance can be scaled up to the intrinsic in vivo hepatic Clearance and used to predict hepatic in vivo blood clearance (CL) by the use of a liver model (well stirred model). CL_[…]_INVIVO [ml/min/kg]=(CL_[…] [μL/min/10e6cells]×hepatocellularity [10e6 cells/g liver]×liver factor [g/kg bodyweight])/1000 CL [ml/min/kg]=CL_[…]_INVIVO [ml/min/kg]×hepatic blood flow [ml/min/kg]/(CL_[…]_INVIVO [ml/min/kg]+hepatic blood flow [ml/min/kg]) Qh [%]=CL [ml/min/kg]/hepatic blood flow [ml/min/kg])
as §1, §2, §3

CN1C(=O)COc2ncn(Cc3nc(C[C@H](O)c4cc5ccc(F)cc5s4)no3)c(=O)c21 [Example 2]
IC50 (human TRPA1 ion channel): 0.012 µM | human LM [1]: <23 % Qh | human Hepatocytes [2]: 34 % Qh

CN1C(=O)COc2ncn(Cc3nc(C[C@H](O)c4cc5ccccc5s4)no3)c(=O)c21 [Example 3]
IC50 (human TRPA1 ion channel): 0.027 µM | human LM [1]: <23 % Qh | human Hepatocytes [2]: 31 % Qh

CN1C(=O)COc2ncn(Cc3nc(C[C@H](O)c4ccc(I)cc4)no3)c(=O)c21 [Example 5]
IC50 (human TRPA1 ion channel): 0.039 µM | human LM [1]: 29 % Qh | human Hepatocytes [2]: 22 % Qh

CN1C(=O)COc2ncn(Cc3nc(C[C@H](O)c4cc5cc(F)ccc5o4)no3)c(=O)c21 [Example 4]
IC50 (human TRPA1 ion channel): 0.039 µM | human LM [1]: <23 % Qh | human Hepatocytes [2]: 22 % Qh

CN1C(=O)COc2ncn(Cc3nc(C[C@H](O)c4ccc(Cl)cc4)no3)c(=O)c21 [Example 1, 3-({3-[(2S)-2-(4-chlorophenyl)-2-hydroxyethyl]-1,2,4-oxadiazol-5-yl}methyl)-5-methyl-3H,4H,5H,6H,7H-pyrimido[4,5-b][1,4]oxazine-4,6-dione]
IC50 (human TRPA1 ion channel): 0.057 µM | human LM [1]: <23 % Qh | human Hepatocytes [2]: 9 % Qh

CN1C(=O)COc2ncn(Cc3nc(C[C@H](O)c4cc5cc(Cl)ccc5o4)no3)c(=O)c21 [Example 6]
IC50 (human TRPA1 ion channel): 0.051 µM | human LM [1]: 56 % Qh | human Hepatocytes [2]: 37 % Qh

Cc1ccc([C@@H](O)Cc2noc(Cn3cnc4c(c3=O)N(C)C(=O)CO4)n2)cc1 [Example 7]
IC50 (human TRPA1 ion channel): 0.12 µM | human LM [1]: <23 % Qh | human Hepatocytes [2]: 9 % Qh
